Here are results for one substance from US20090227547A1, “Novel salt form of a Beta2-adrenergic agonist quinolin-2-one derivative” (Glaxo Group Limited, priority 2005, published 2009).

Holding throughout (format): physicochemical
The nature of one data set: hygroscopicity.
Data set [1] is described as follows: solubility in solvents (crystallisation antisolvents). To be noted: in a wide range of solvents usable as antisolvents (water, tetrahydrofuran, lower alcohols, acetone).
Data set [2] in a line: physical and chemical stability on storage. To be noted: general statement.

With “N-[2-[4-[(3-phenyl-4-methoxyphenyl)amino]phenyl]ethyl]-(R)-2-hydroxy-2-(8-hydroxy-1,2-dihydro-2-oxoquinolin-5-yl)ethylammonium 2,5-dichlorobenzenesulfonate”, the hygroscopicity result in the data set “hygroscopicity” is “substantially non-hygroscopic”. Moreover, the solubility result in data set [1] is “limited solubility”. Also, the “physical and chemical stability on storage” value in data set [2] was “good physical and chemical stability on storage”.
